Like-named read-outs stand apart in the source and are kept apart here.

This assay relates to MMP-9 production. Briefly: Determination of MMP-9 Production Inhibitory Activity (PMA-stimulated HEC3 cells, gelatin zymography). The class given is cell-based. The conditions noted are these: Endothelial cell, immortalized human vascular endothelial cells HEC3, PMA 10^-7 M stimulation, test substance at 10, 2, 0.4 and 0.08 μM, read-out: IC50 (MMP-9 production inhibitory rate). As to the method: Immortalized human vascular endothelial cells HEC3 (supplied by Prof. Iijima of Nagoya University) were subcultured in RPMI1640 medium (Sigma Ltd.) containing 10% fetal calf serum.
The HEC3 cells (5×10^4 cells/well) were plated on a 24-well plate, and cultured in RPMI1640 medium containing 10% fetal calf serum for 24 hr. Each well was washed once with serum-free RPMI1640 medium. Then, RPMI1640 medium (250 μl/well) containing 0.05% fetal calf serum was added to each well, and the cells were further cultured for 2 hr.
The supernatant was removed, and the test substances (Example compounds shown in Table 1) diluted to various concentrations were added and incubated for 1 hr in 0.05% serum-containing RPMI1640 medium and the supernatant was removed again. A medium containing a test substance having the same concentration as in the pre-treatment and PMA (10^−7 M), which is a stimulant, was added at 250 μl/well, and the cells were further cultured for 24 hr.
After completion of the culture, water (50 μl) and 25 μl of SDS buffer (240 mM Tris-HCl (pH 6.8), 8% SDS, 40% glycerol) were added to the culture supernatant (25 μl), and the mixture (10 μl) was electrophoresed on a 7.5% polyacrylamide gel containing 0.1% gelatin.
After the electrophoresis, the gel was washed with Tris-HCl buffer (pH 7.5) containing 0.5% Triton X-100 (Sigma Ltd.) for 1 hr. The gel was immersed in an activation buffer (150 mM NaCl, 50 mM Tris-HCl (pH 7.5), 10 mM CaCl2) at 37° C. for 18 hr to activate MMP-9, and then stained with CBB. The obtained MMP-9 band was converted to numerical values by a densitometer (ATTO. Ltd.).
The MMP-9 production inhibitory rate by the test substance was calculated by the following equation. MMP-9 production inhibitory rate=100−100×{(test substance addition value−non-stimulation value)/(PMA stimulation value−non-stimulation value)}
The MMP-9 production inhibitory rates of the test substance at 10, 2, 0.4 and 0.08 μM were calculated, and IC50 value of the each test substance was determined using an analysis soft (RegExcel).

Broadly, the IC50 is the point on the concentration scale where inhibition reaches its midpoint. Regarding `O=C(Nc1n[nH]c2ccccc12)N1CCC(O)(c2ccc(F)c(C(F)(F)F)c2)CC1` [Ex. 9], the IC50 (Homo sapiens, 24 h) is 340 nM.

In the case of `Cc1ccc(F)c(C2(O)CCN(C(=O)Nc3n[nH]c4ccccc34)CC2)c1` [Ex. 130, 4-(2-fluoro-5-methylphenyl)-4-hydroxy-1-piperidinecarboxylic acid (1H-indazol-3-yl)amide], where the note is “Homo sapiens, 24 h”, the IC50 was 620 nM.

`O=C(Nc1n[nH]c2ccccc12)N1CCc2c([nH]c3cc(Cl)ccc23)C1` [Ex. 75]: the IC50 (Homo sapiens, 24 h) was 110 nM. Turning to `O=C(Nc1n[nH]c2ccccc12)N1CC=C(c2ccc(F)c(Cl)c2)CC1` [Ex. 53], under “Homo sapiens, 24 h”, the IC50 amounted to 240 nM. Regarding `CN(C)CC1c2[nH]c3ccccc3c2CCN1C(=O)Nc1n[nH]c2ccccc12` (stereo not drawn) [Ex. 108, 1-[(dimethylamino)methyl]-1,3,4,9-tetrahydro-β-carboline-2-carboxylic acid (1H-indazol-3-yl)amide], the IC50 (Homo sapiens, 24 h) came to 670 nM. For `O=C(Nc1n[nH]c2ccccc12)N1CCc2c(sc3ccccc23)C1` [Ex. 80, 3,4-dihydro[1]benzothieno[2,3-c]pyridine-2-carboxylic acid (1H-indazol-3-yl)amide], the IC50 (Homo sapiens, 24 h) was 250 nM. With `O=C(Nc1n[nH]c2ccccc12)N1CCc2c([nH]c3ccccc23)C1` [Ex. 64], the IC50 (Homo sapiens, 24 h) was found to be 120 nM. For `Cc1ccc(C)c(C2(O)CCN(C(=O)Nc3n[nH]c4ccccc34)CC2)c1` [Ex. 139, 4-(2,5-dimethylphenyl)-4-hydroxy-1-piperidinecarboxylic acid (1H-indazol-3-yl)amide], the IC50 (Homo sapiens, 24 h) came to 450 nM.

Turning to `Cn1c2c(c3ccccc31)CCN(C(=O)Nc1n[nH]c3ccccc13)C2` [Ex. 65], the IC50 (Homo sapiens, 24 h) was 160 nM. With `Cc1ccc(C2(O)CCN(C(=O)Nc3n[nH]c4ccccc34)CC2)cc1C` [Ex. 142, 4-(3,4-dimethylphenyl)-4-hydroxy-1-piperidinecarboxylic acid (1H-indazol-3-yl)amide], the IC50 (Homo sapiens, 24 h) came out at 400 nM. Consider `Cc1ccsc1C1=CCN(C(=O)Nc2n[nH]c3ccccc23)CC1` [Ex. 59], for which, under “Homo sapiens, 24 h”, the IC50 was 210 nM. For the compound `O=C(Nc1n[nH]c2ccccc12)N1CCc2c([nH]c3cc(C(F)(F)F)ccc23)C1` [Ex. 76], under “Homo sapiens, 24 h”, the IC50 is 240 nM. Consider `O=C(Nc1n[nH]c2ccccc12)N1CCc2c([nH]c3cccc(Cl)c23)C1` [Ex. 78, 5-chloro-1,3,4,9-tetrahydro-β-carboline-2-carboxylic acid (1H-indazol-3-yl)amide], for which the IC50 (Homo sapiens, 24 h) is 280 nM. For `O=C(Nc1n[nH]c2ccccc12)N1CCC(O)(c2cccc(Cl)c2F)CC1` [Ex. 20], where the note is “Homo sapiens, 24 h”, the IC50 came out at 320 nM.

Turning to `CN(C)c1cccc(C2=CCN(C(=O)Nc3n[nH]c4ccccc34)CC2)c1` [Ex. 63], the IC50 (Homo sapiens, 24 h) stood at 360 nM. With `O=C(Nc1n[nH]c2ccccc12)N1CCC(c2cccc(C(F)(F)F)c2)CC1` [Ex. 112, 4-[3-(trifluoromethyl)phenyl]piperidine-1-carboxylic acid (1H-indazol-3-yl)amide], the IC50 (Homo sapiens, 24 h) worked out at 700 nM. For the compound `O=C(Nc1n[nH]c2ccccc12)N1CC=C(c2ccccc2)CC1` [Ex. 49], the IC50 (Homo sapiens, 24 h) amounted to 260 nM. The same measure, in the same setting: the same measure for `O=C(Nc1n[nH]c2ccccc12)N1CCC(O)(c2cc(C(F)(F)F)cc(C(F)(F)F)c2)CC1` [Ex. 34]: 430 nM. The same measure, in the same setting: in the case of `O=C(Nc1n[nH]c2ccccc12)N1CCn2c(nc3ccccc32)C1` [Ex. 105, 3,4-dihydropyrazino[1,2-a]benzimidazole-2-carboxylic acid (1H-indazol-3-yl)amide] it was 40 nM; in that of `O=C(Nc1n[nH]c2ccccc12)N1CCN(c2ccc(Cl)c(C(F)(F)F)c2)CC1` [Ex. 93, 4-[4-chloro-3-(trifluoromethyl)phenyl]-1-piperazinecarboxylic acid (1H-indazol-3-yl)amide], 170 nM; in that of `O=C(Nc1n[nH]c2ccccc12)N1CCc2c([nH]c3cccc(F)c23)C1` [Ex. 77], 50 nM. On to `O=C(Nc1n[nH]c2ccccc12)N1CCC(F)(c2ccc(Cl)c(C(F)(F)F)c2)CC1` [Ex. 123, 4-[4-chloro-3-(trifluoromethyl)phenyl]-4-fluoropiperidine-1-carboxylic acid (1H-indazol-3-yl)amide], for which, for the setting “Homo sapiens, 24 h”, the IC50 stood at 730 nM. As for `N#CC1(c2cc(F)cc(F)c2)CCN(C(=O)Nc2n[nH]c3ccccc23)CC1` [Ex. 47], the IC50 (24 hr) is 350 nM. Regarding `COc1ccc(C2=CCN(C(=O)Nc3n[nH]c4ccccc34)CC2)cc1OC` [Ex. 62], the IC50 (Homo sapiens, 24 h) was found to be 690 nM. Still for that read-out and setting: in the case of `O=C(Nc1n[nH]c2ccccc12)N1CCc2c([nH]c3ccc(F)cc23)C1` [Ex. 70] it was 60 nM; in that of `O=C(Nc1n[nH]c2ccccc12)N1CCC(O)(c2cc(F)cc(C(F)(F)F)c2)CC1` [Ex. 6], 290 nM.

Regarding `Cc1ccc2[nH]c3c(c2c1)CCN(C(=O)Nc1n[nH]c2ccccc12)C3` [Ex. 81, 6-methyl-1,3,4,9-tetrahydro-β-carboline-2-carboxylic acid (1H-indazol-3-yl)amide], the IC50 (Homo sapiens, 24 h) was found to be 100 nM. Turning to `N#CC1(c2cccc(C(F)(F)F)c2)CCN(C(=O)Nc2n[nH]c3ccccc23)CC1` [Ex. 42], the IC50 (24 hr) was determined as 220 nM. Turning to `O=C(Nc1n[nH]c2ccccc12)N1CCC(O)(c2cc(F)cc(F)c2)CC1` [Ex. 12], the IC50 (Homo sapiens, 24 h) was 610 nM. Take `O=C(Nc1n[nH]c2ccccc12)N1CCN(c2cc(C(F)(F)F)ccc2Cl)CC1` [Ex. 99, 4-[2-chloro-5-(trifluoromethyl)phenyl]-1-piperazinecarboxylic acid (1H-indazol-3-yl)amide]: the IC50 (Homo sapiens, 24 h) is 610 nM. Still for that read-out and setting: the same measure for `O=C(Nc1n[nH]c2ccccc12)N1CCc2c(c(=O)[nH]c3ccccc23)C1` [Ex. 104, 5-oxo-1,4,5,6-tetrahydrobenzo[c]-2,7-naphthyridine-3-carboxylic acid (1H-indazol-3-yl)amide]: 10 nM; for `COCCn1c2c(c3ccccc31)CCN(C(=O)Nc1n[nH]c3ccccc13)C2` [Ex. 66]: 630 nM; for `O=C(Nc1n[nH]c2ccccc12)N1CCN(c2ccc(F)c(C(F)(F)F)c2)CC1` [Ex. 94, 4-[4-fluoro-3-(trifluoromethyl)phenyl]-1-piperazinecarboxylic acid (1H-indazol-3-yl)amide]: 340 nM. On to `N#CC1(c2ccc(Cl)c(C(F)(F)F)c2)CCN(C(=O)Nc2n[nH]c3ccccc23)CC1` [Ex. 44], for which the IC50 (24 hr) worked out at 450 nM. As for `O=C(Nc1n[nH]c2ccccc12)N1CCc2c([nH]c3ccc(Cl)cc23)C1` [Ex. 72], the IC50 (Homo sapiens, 24 h) came out at 100 nM. The same measure, in the same setting: in the case of `Cc1ccc(C(F)(F)F)cc1C1(O)CCN(C(=O)Nc2n[nH]c3ccccc23)CC1` [Ex. 141, 4-hydroxy-4-[2-methyl-5-(trifluoromethyl)phenyl]-1-piperidinecarboxylic acid (1H-indazol-3-yl)amide] it was 320 nM; in that of `O=C(Nc1n[nH]c2ccccc12)N1CCc2c([nH]c(=O)c3ccccc23)C1` [Ex. 109, 6-oxo-1,4,5,6-tetrahydrobenzo[c]-1,7-naphthyridine-3-carboxylic acid (1H-indazol-3-yl)amide], 140 nM. On the same count and under the same terms, the same measure for `O=C(Nc1n[nH]c2ccccc12)N1CCN(c2ccc(Cl)c(Cl)c2)CC1` [Ex. 98, 4-(3,4-dichlorophenyl)-1-piperazinecarboxylic acid (1H-indazol-3-yl)amide]: 220 nM; for `O=C(Nc1n[nH]c2ccccc12)N1CCc2c(c(=O)oc3ccccc23)C1` [Ex. 103, 5-oxo-1,5-dihydro-2H-chromeno[3,4-c]pyridine-3-carboxylic acid (1H-indazol-3-yl)amide]: 60 nM.

The record behind these values is patent US7994196B2, “Indazole compound and pharmaceutical use thereof” (Mitsubishi Tanabe Pharma Corporation, priority 2004, dated 2011).
